Source: ChEMBL document CHEMBL5724914, “Linking interpersonal differences in gut microbiota composition and drug biotransformation activity” (2024)

Columns and labels:
[1] = (§1) The drug is tested on Z-004 corresponding to metagenome with ENA study accession number: PRJEB37062 and ENA sample accession number: ERS12561804 for biotransformation under anaerobic condition. The drug concentrations were measured over 9 timepoints collected between 0 and 24 hours of incubation by liquid-chromatography-coupled mass spectrometry (LC–MS); settings: 2 µM
[2] = (§2) The drug is tested on Z-029 corresponding to rat gut metagenome with ENA study accession number: PRJEB37062 and ENA sample accession number: ERS12561828 for biotransformation under anaerobic condition. The drug concentrations were measured over 9 timepoints collected between 0 and 24 hours of incubation by liquid-chromatography-coupled mass spectrometry (LC–MS); settings: 2 µM
[3] = as §2, with “on Z-022” for “on Z-029”, “to mouse” for “to rat”, “number: ERS12561821” for “number: ERS12561828”; settings: 2 µM
[4] = as §2, with “on WLS-082” for “on Z-029”, “to human” for “to rat”, “number: ERS12561751” for “number: ERS12561828”; settings: 2 µM
[5] = human gut metagenome, 24 h, 2 µM
[6] = as §1, with “Z-012” for “Z-004”, “ERS12561812” for “ERS12561804”; settings: 2 µM
[7] = human gut metagenome, 24 h, 2 µM; remark: listed apart in the source
[8] = as §2, with “on Z-002” for “on Z-029”, “to rabbit” for “to rat”, “number: ERS12561802” for “number: ERS12561828”; settings: 2 µM
[9] = as §2, with “on WLS-010” for “on Z-029”, “to human” for “to rat”, “number: ERS12561743” for “number: ERS12561828”; settings: 2 µM
Note: call rule not given here.

| Structure (SMILES) | Bacterial Biotransformation [1] | Bacterial Biotransformation [2] | Bacterial Biotransformation [3] | Bacterial Biotransformation [4] | Bacterial Biotransformation [5] | Bacterial Biotransformation [6] | Bacterial Biotransformation [7] | Bacterial Biotransformation [8] | Bacterial Biotransformation [9] |
| --- | --- | --- | --- | --- | --- | --- | --- | --- | --- |
| COc1ccc(C(CN(C)C)C2(O)CCCCC2)cc1 (stereo unspecified) [VENLAFAXINE] | Compound NOT metabolized | Compound NOT metabolized | Compound NOT metabolized | Compound NOT metabolized | Compound NOT metabolized | Compound NOT metabolized | Compound NOT metabolized | Compound NOT metabolized | Compound NOT metabolized |
| CCOC(=O)C1=C[C@]2(CC)CCCN3CCc4c(n1c1ccccc41)[C@@H]32 [VINPOCETINE] | Compound NOT metabolized | Compound NOT metabolized | Compound metabolized | Compound metabolized | Compound metabolized | Compound NOT metabolized | Compound metabolized | Compound metabolized | Compound NOT metabolized |
| C[C@@H](c1ncncc1F)[C@](O)(Cn1cncn1)c1ccc(F)cc1F [VORICONAZOLE] | Compound NOT metabolized | Compound metabolized | Compound metabolized | Compound metabolized | Compound metabolized | Compound metabolized | Compound metabolized | Compound metabolized | Compound metabolized |
| CCN(C(C)=O)c1cccc(-c2ccnc3c(C#N)cnn23)c1 [ZALEPLON] | Compound metabolized | Compound NOT metabolized | Compound NOT metabolized | Compound metabolized | Compound metabolized | Compound metabolized | Compound metabolized | Compound metabolized | Compound metabolized |
